The results in this text go back to ChEMBL document CHEMBL1132737, “Oxygenated chalcones and bischalcones as potential antimalarial agents” (2000).

Common to all, as to assay type: functional
The subject of experiment [1] is Plasmodium berghei. In words: Parasitaemia at day 7 after combination dose at 50 mg/kg/day with 15 mg/kg/day […] over 4 days.
Experiment [2] has as its system Plasmodium berghei. The experiment is described as follows: Parasitaemia at day 19 after combination dose at 50 mg/kg/day with 15 mg/kg/day […] over 4 days.
Experiment [3] relates to Plasmodium berghei. The experiment is described as follows: Parasitaemia at day 17 after combination dose at 50 mg/kg/day with 15 mg/kg/day […] over 4 days.
For experiment [4], the system named is Plasmodium berghei. The experiment is described as follows: Parasitaemia at day 11 after combination dose at 50 mg/kg/day with 15 mg/kg/day […] over 4 days.
In experiment [5] the test system is Plasmodium berghei. In words: Parasitaemia at day 11 after 50 mg/kg/day dose over 4 days.
In experiment [6] the test system is Plasmodium berghei. The experiment is described as follows: Parasitaemia at day 9 after combination dose at 50 mg/kg/day with 15 mg/kg/day […] over 4 days.
The subject of experiment [7] is Plasmodium berghei. In words: Parasitemia at day 5 after combination dose at 50 mg/kg/day with 15 mg/kg/day […] over 4 days.
Experiment [8] has as its system Plasmodium berghei. The experiment is described as follows: Parasitaemia at day 15 after combination dose at 50 mg/kg/day with 15 mg/kg/day […] over 4 days.
Experiment [9] relates to Plasmodium berghei. The experiment is described as follows: In vivo activity at day 5 against chloroquine-sensitive Plasmodium berghei infected mice (Mus musculus) at 100 mg/kg intraperitoneal dose over 4 days.
The subject of experiment [10] is Plasmodium berghei. The experiment is described as follows: Parasitaemia at day 5 after 50 mg/kg/day dose over 4 days.
For experiment [11], the system named is Plasmodium berghei. In words: Parasitemia at day 13 after combination dose at 50 mg/kg/day with 15 mg/kg/day […] over 4 days.
Experiment [12] concerns Plasmodium berghei. In words: Parasitemia at day 9 after 50 mg/kg/day dose over 4 days.
Experiment [13] deals with Plasmodium berghei. The experiment is described as follows: In vivo activity at day 7 against chloroquine-sensitive Plasmodium berghei infected mice (Mus musculus) at 100 mg/kg intraperitoneal dose over 4 days.
The test system of experiment [14] is Plasmodium berghei. In words: Parasitaemia at day 13 after 50 mg/kg/day dose over 4 days.
For experiment [15], the system named is Plasmodium berghei. The experiment is described as follows: In vivo activity at day 9 against chloroquine-sensitive Plasmodium berghei infected mice (Mus musculus) at 100 mg/kg intraperitoneal dose over 4 days.
Experiment [16] relates to Plasmodium berghei. The experiment is described as follows: Parasitemia at day 7 after 50 mg/kg/day dose over 4 days.
The subject of experiment [17] is Plasmodium berghei. The experiment is described as follows: Parasitemia at day 15 after 50 mg/kg/day dose over 4 days.
Experiment [18] has as its system Plasmodium berghei. The experiment is described as follows: Parasitemia at day 17 after 50 mg/kg/day dose over 4 days.
Experiment [19] has as its system Plasmodium berghei. The experiment is described as follows: In vivo activity after 15 days against chloroquine-sensitive Plasmodium berghei infected mice (Mus musculus) at 100 mg/kg intraperitoneal dose over 4 days.
Experiment [20] relates to Plasmodium berghei. In words: In vivo activity after 13 days against chloroquine-sensitive Plasmodium berghei infected mice (Mus musculus) at 100 mg/kg intraperitoneal dose over 4 days.
Experiment [21] deals with Plasmodium berghei. The experiment is described as follows: In vivo activity after 11 days against chloroquine-sensitive Plasmodium berghei infected mice (Mus musculus) at 100 mg/kg intraperitoneal dose over 4 days.

With `COc1ccc(/C=C/C(=O)c2ccc(OCOc3ccc(C(=O)/C=C/c4ccc(OC)c(OC)c4)cc3)cc2)cc1OC`, the Parasitaemia stood at 0% in experiment [1]; 22.6% in experiment [2]; 11.6% in [3]; 0.8% in experiment [4]; 10.2% in [5]; 0.3% in experiment [6]. The Parasitaemia in experiment [7] was found to be 0%; in experiment [8] it was 4.4%; in experiment [9], 2.8%; in [10], 1.5%; in experiment [11], 1.4%; in experiment [12], 5.8%. For the same compound, the Parasitaemia in experiment [13] came to 5.6%; in experiment [14] it was 14.3%; in experiment [15], 7.25%; in experiment [16], 2.3%.
`COc1ccc(/C=C/C(=O)c2ccc(OCCCOc3ccc(C(=O)/C=C/c4ccc(OC)cc4OC)cc3)cc2)c(OC)c1`: the Parasitaemia was determined as 2.3% in experiment [1]; 12.5% in [17]; 18% in experiment [3]; 7.7% in [4]; 8.4% in experiment [5]; 3.76% in [6]. Further, the Parasitaemia was 1.2% in [7]; 13.7% in experiment [8]; 3.2% in experiment [9]; 1.3% in experiment [10]; 9.5% in experiment [11]; 4.8% in [12]. In addition, the Parasitaemia in experiment [18] is reported as 16%; in experiment [13], 4.7%; in [14] it was 10%; in experiment [15], 8%; in experiment [16], 2.2%.
Consider `COc1cccc(/C=C/C(=O)c2ccc(OCCCOc3ccc(C(=O)/C=C/c4cccc(OC)c4)cc3)cc2)c1`, for which the Parasitaemia in [19] is 1.7%; in experiment [20], 1.81%; in experiment [1], 1.1%; in experiment [17], 13%; in experiment [2], 13%; in [3] it was 9.5%. Further, the Parasitaemia in experiment [21] is reported as 1.8%; in [4], 3%; in experiment [5], 4.2%; in [6], 3%; in experiment [7], 0.08%; in experiment [8], 7%. In addition, the Parasitaemia in experiment [9] was found to be 0%; in experiment [10], 1.75%; in experiment [11], 4.6%; in [12], 4.2%; in [18] it was 19%; in [13] it was 0.52%. In addition, the Parasitaemia is 5.4% in experiment [14], 1% in experiment [15] and 1.9% in experiment [16].
